One data set deals with TNF-α. Kind of data set: TNF-α sandwich ELISA, Example 8-3. It is filed as cell-based, mouse. Conditions: incubated supernatant. The protocol:
(§1) In order to evaluate an arthritis therapeutic effect of the biguanide derivative compound of the present invention, in a rheumatoid arthritis animal model, cytotoxicity, generation of autoantibody, expression of inflammatory cytokines and regulatory T cells (Treg), and osteoclast differentiation were measured. Like Examples, metformin was used as a control group. In order to evaluate an effect of suppressing the expression of the inflammatory cytokine of the biguanide derivative compound of the present invention, the incubated supernatant was collected and the expression degrees of IL-17 and TNF-α of a mouse were examined by using a sandwich ELISA. […] of a monoclonal anti-IL-17 or anti-TNF-α was reacted in a 96-well plate at 4° C. overnight and then a non-specific binding was blocked by a blocking solution (1% BSA/PBST) after the reaction. An IL-17 or TNF-α recombinant was continuously diluted by 1/2 to be used as a standard, added with the cell-incubated supernatant, and reacted at room temperature for 2 hrs. Thereafter, biotinylated anti-IL-17 or anti-TNF-α was added and reacted at room temperature for 2 hrs, washed four times after the reaction, diluted with a diluted ExtraAvidin-alkaline phosphatase conjugate, and reacted at room temperature for 2 hrs. After the reaction, a PNPP/DEA was added and colored, and absorbance was measured at a wavelength of 405 nm.
(In an ELISA, binding on a coated surface is turned into a signal by an enzyme label.)

A short description of data set [1]: Cytotoxicity (MTT) in lupus animal model. It is filed as cell-based. On the procedure: In order to examine cytotoxicity of the biguanide derivative compound of the present invention, an MTT assay was performed. Cells were isolated from the spleen in a normal mouse group and the isolated cells were incubated for 3 days in the concentration of 0.5 μg/ml of anti-CD3 or 100 ng/ml of LPS 100, and metformin, SD-196, SD-216 or SD-217 was treated for each concentration and incubated for 3 days. […] In order to evaluate a lupus therapeutic effect of the biguanide derivative compound of the present invention, in a lupus animal model, cytotoxicity, autoantibody generation, generation of inflammatory cytokines, and Th17 regulation were measured by the same method as Example 8.

The test system of data set [2] is cells isolated from the spleen. Kind of data set: Cytotoxicity MTT assay, Example 8-1 (rheumatoid arthritis evaluation). It is filed as cell-based. Conditions: mouse spleen cells, anti-CD3 0.5 μg/ml or LPS 100 ng/ml, 3 days. The protocol: In order to evaluate an arthritis therapeutic effect of the biguanide derivative compound of the present invention, in a rheumatoid arthritis animal model, cytotoxicity, generation of autoantibody, expression of inflammatory cytokines and regulatory T cells (Treg), and osteoclast differentiation were measured. Like Examples, metformin was used as a control group. In order to examine cytotoxicity of the biguanide derivative compound of the present invention, an MTT assay was performed. Cells were isolated from the spleen in a normal mouse group and the isolated cells were incubated for 3 days in the concentration of 0.5 μg/ml of anti-CD3 or 100 ng/ml of LPS 100, and metformin, SD-196, SD-216 or SD-217 was treated for each concentration and incubated for 3 days.
(In general: Tetrazolium dyes change colour on reduction, which living cells bring about.)

Data set [3] can be described thus: Cytotoxicity (MTT) in rheumatoid arthritis disease model with metabolic syndrome. Type of data set: cell-based. On the procedure:
In order to examine cytotoxicity of the biguanide derivative compound of the present invention, an MTT assay was performed. Cells were isolated from the spleen in a normal mouse group and the isolated cells were incubated for 3 days in the concentration of 0.5 μg/ml of anti-CD3 or 100 ng/ml of LPS 100, and metformin, SD-196, SD-216 or SD-217 was treated for each concentration and incubated for 3 days.
(§2) Further, the incubated cells were analyzed by flow cytometry using anti-CD4-percp and anti-IL-17-Pe fluorescent antibodies, and as a result, it was verified that SD-196, 216 and 217 suppressed the activity of Th17 and simultaneously activated the expression of the regulatory T cells (Treg) (see FIG. 13).

Another data set concerns osteoclast. Kind of data set: Osteoclast differentiation, TRAP staining. Conditions: bone marrow of arthritis animal model, MCSF 10 ng/ml and RANKL 50 ng/ml. Type of data set: cell-based, mouse. The protocol:
In order to verify whether the biguanide derivative compound of the present invention suppresses the osteoclast differentiation, while a bone marrow extracted from a leg in an arthritis animal model was treated with MCSF (10 ng/ml) and RANKL (50 ng/ml) to differentiate the osteoclast, metformin, SD-196, SD-216, and SD-217 were treated, respectively, and the differentiation degrees of the osteoclast were evaluated. The evaluation was performed by using TRAP straining.

The subject of another data set is IL-17. Kind of data set: IL-17 sandwich ELISA, Example 8-3. It is filed as cell-based, mouse. Conditions: incubated supernatant. The protocol:
as §1

In data set [4] the test system is IgG. Kind of data set: IgG generation in lupus animal model. Type of data set: cell-based. Conditions: compared with metformin. On the procedure:
(§3) In order to examine an effect of suppressing the generation of autoantibody of the biguanide derivative compound of the present invention, the incubated supernatant was collected and the IgG expression degree was examined by using an ELISA. A monoclonal anti-IgG was reacted at 4° C. overnight in a 96-well plate and then a non-specific binding was blocked by a blocking solution. A mouse control serum was continuously diluted by 1/2 to be used as a standard, added with the cell-incubated supernatant, and reacted at room temperature for 2 hrs. Thereafter, HRP-anti-IgG was reacted at room temperature for 2 hrs, washed four times after reaction, added with the diluted HRP-conjugate, and reacted at room temperature for 2 hrs.
In order to evaluate a lupus therapeutic effect of the biguanide derivative compound of the present invention, in a lupus animal model, cytotoxicity, autoantibody generation, generation of inflammatory cytokines, and Th17 regulation were measured by the same method as Example 8.

In a further data set the test system is Th17. Kind of data set: Th17 activity by flow cytometry in rheumatoid arthritis disease model with metabolic syndrome. It is filed as cell-based. The following applies: flow cytometry anti-CD4, anti-IL-17. The protocol: as §2
(In flow cytometry, cells or beads pass a laser one at a time.)

For data set [5], the system named is IgG. Kind of data set: IgG (autoantibody) ELISA, Example 8-2. It is filed as cell-based, mouse. Conditions: incubated supernatant, compared with metformin. On the procedure:
In order to evaluate an arthritis therapeutic effect of the biguanide derivative compound of the present invention, in a rheumatoid arthritis animal model, cytotoxicity, generation of autoantibody, expression of inflammatory cytokines and regulatory T cells (Treg), and osteoclast differentiation were measured. Like Examples, metformin was used as a control group.
as §3

The subject of data set [6] is regulatory T cells (Treg). Kind of data set: Regulatory T cell (Treg) expression in rheumatoid arthritis disease model with metabolic syndrome. It is filed as cell-based. The protocol: Further, in order to examine whether the biguanide derivative compound of the present invention activates the expression of regulatory T cells (Treg), the incubated cells were flow-cytometry by using anti-CD4-percp, anti-CD25-APC, and anti Foxp3-Pe fluorescent antibodies (ab), and as a result, it was verified that SD-196, 216 and 217 activated the Foxp3+ Treg cells (see FIG. 10).
as §2

On to `CC(C)NC(=N)NC(=N)N` [SD-000196, 1-isopropylbiguanide], for which the “TNF-α inflammatory cytokine expression” value in the data set on TNF-α is on record as “significantly suppressed”. For the same molecule, the cytotoxicity result in data set [1] is on record as “no cytotoxicity”; in data set [3] it was “did not have the cytotoxicity”. For the same molecule, the “cytotoxicity (MTT assay)” value in [2] is given as “no cytotoxicity”. Moreover, in the data set on osteoclast, the “differentiation of the osteoclast” value is recorded as “significantly suppress”. The “IL-17 inflammatory cytokine expression” value in the data set with IL-17 is on record as “significantly suppressed”. In addition, the “expression of IgG” value with IgG [4] and with IgG [5] was “significantly suppressed” in each case. Further, in the data set on Th17, the “activity of Th17” value is given as “suppressed”. Further, in data set [6], the “expression of the regulatory T cells (Treg)” value (from here on “expression … (Treg)”) was “activated”.
For `NC(N)=N/C(N)=N/c1cccc(F)c1` [SD-000216, 1-(3-fluorophenyl)biguanide], the “TNF-α inflammatory cytokine expression” value with TNF-α is listed as “significantly suppressed”. For the same molecule, the cytotoxicity entry in [1] was “no cytotoxicity”; in data set [3] it was “did not have the cytotoxicity”. Further, the “cytotoxicity (MTT assay)” value in data set [2] is recorded as “no cytotoxicity”. Besides, in the data set with osteoclast, the “differentiation of the osteoclast” value is reported as “significantly suppress”. Moreover, the “IL-17 inflammatory cytokine expression” value in the data set on IL-17 is reported as “significantly suppressed”. In addition, the “expression of IgG” value with IgG [4] and with IgG [5] was “significantly suppressed” throughout. Further, the “activity of Th17” value in the data set on Th17 was “suppressed”. In data set [6], the “expression … (Treg)” value was “activated”.
As to `N=C(N)NC(=N)Nc1ccc(F)cc1F` [SD-000217, 1-(2,4-difluorophenyl)biguanide], the “TNF-α inflammatory cytokine expression” value in the data set on TNF-α is listed as “significantly suppressed”. Further, the cytotoxicity result in [1] is reported as “no cytotoxicity”; in data set [3], “did not have the cytotoxicity”. In [2], the “cytotoxicity (MTT assay)” value is on record as “no cytotoxicity”. Further, the “differentiation of the osteoclast” value in the data set with osteoclast is “significantly suppress”. The “IL-17 inflammatory cytokine expression” value with IL-17 is “significantly suppressed”. The “expression of IgG” value in the data set with IgG [4] and in the data set on IgG [5] was “significantly suppressed” in each case. For the same molecule, the “activity of Th17” value with Th17 is “suppressed”. In addition, the “expression … (Treg)” value in data set [6] is listed as “activated”.

For the origin of these results see US10716771B2, “Pharmaceutical composition for preventing or treating immune diseases or inflammatory diseases, containing biguanide derivative compound as active ingredient” (THE CATHOLIC UNIVERSITY OF KOREA INDUSTRY-ACADEMIC …, priority 2013, dated 2020).
